Results as given in patent EP2845588A1, “PIN1 inhibitors for use in the prevention and/or treatment of theileriosis, and related applications” (Centre National de la Recherche Scientifique (CNRS), priority 2013, dated 2015).
Read-outs that look alike come from different tables or passages of the source.

Assays:
[1] = system: non-parasitized BL3 cells; assay: Cell proliferation, live cell count after trypan blue exclusion, BL3; format: cell-based, bovine; conditions: BL3 / uninfected cells
Procedure: All infected bovine cell lines used in this study were previously described: TBL3 cells were derived from in vitro infection of the spontaneous bovine-B lymphosarcoma cell line, BL3, with Hissar stock of T.annulata. The TpMD409 lymphocyte cell line are infected with T. parva. The culture conditions of these cell lines were previously described by Moreau et al., 1999. Cells were cultured in RPMI 1640 (Gibco-BRL, Paisley, UK), supplemented with 10% heat-inactivated Fetal calf serum, 4mM L-Glutamine, 25mM HEPES, 10µM β-mercaptoethanol and 100µg/ml penicillin/streptomycin in a humidified 5%CO2 atmosphere at 37°C. HepG2, NIH/3T3 and MEF cells lines were cultured in DMEM (Gibco-BRL, Paisley, UK), supplemented with 10% heat-inactivated Fetal calf serum, 4mM L-Glutamine, 25 mM HEPES, 10µM β-mercaptoethanol and 100µg/ml penicillin/streptomycin in a humidified 5% CO2 atmosphere at 37°C. Cell numbers, as judged by Trypan Blue exclusion test, were determined by counting cells using a Countess automated cell counter (Invitrogen, CA, USA). The anti-parasite drug Buparvaquone (BW720c) was used at 200ng/ml for 72 hours. BW720c has no effect on growth of uninfected cells.
Cells were treated with either Juglone at 5 µM resuspended in Ethanol (Sigma, St Louis, MO, Ref.: H47003), or PiB at 1 µM resuspended in DMSO (Sigma, Ref.: B7688), or Dimethyloxalylglycine DMOG at 0.5 mM resuspended in DMSO (Tebu-bio, MO, USA).

[2] = system: FBW7 and c-Jun mRNA in TBL3 cells; assay: RT-qPCR of FBW7 and c-Jun mRNA in TBL3 cells; format: cell-based, bovine
Procedure: Total cellular RNAs were extracted using an RNeasy Plus Mini Kit (Qiagen, Hilden, Germany) and parasite RNAs were extracted using the classical Trizol Protocol. cDNA synthesis was performed with the Reverse Transcriptase Superscript III (Invitrogen, CA, USA).
Quantitative PCR amplification was performed in the ABI 7500 machine (Applied Biosystems, CA, USA) using the Sybr Green reagent (Applied Biosystems, CA, USA) using the primers listed in Table 5 below. The detection of a single product was verified by dissociation curve analysis. Relative quantities of mRNA were analyzed using the delta Ct method. The βactin qPCR was used for normalization. Table 5: qPCR primers

PIN1 [3] = target: T1, PIN1 (Homo sapiens, UniProt Q13526); conditions: cited from earlier work
PIN1 [4] = target: T1, PIN1; conditions: cited from earlier work; for IC50: read-out: PIN1 inhibition IC50

T1 sequence (Q13526 whole entry): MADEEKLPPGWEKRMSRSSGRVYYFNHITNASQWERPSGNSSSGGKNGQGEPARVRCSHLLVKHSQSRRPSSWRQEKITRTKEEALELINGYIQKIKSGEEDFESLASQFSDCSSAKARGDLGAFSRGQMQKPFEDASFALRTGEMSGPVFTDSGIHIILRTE

**Q.** For O=C1C=CC(=O)c2c(O)cccc21 [Juglone, 5-Hydroxy-1,4-naphthlenedione], which “proliferation of non-parasitized cells” value [1] is on record?
**A.** no effect

**Q.** What about the mRNA expression [2] of the same compound?
**A.** no effect

**Q.** For CRYPEVEIC, which Ki (PIN1 [3]; read-out: PIN1 inhibition Ki) is on record?
**A.** 520 nM

**Q.** Which “PIN1 inhibition (Ki and/or IC50)” value (PIN1 [4]; cell prints neither Ki nor IC50) does the source give for O=C1Nc2ccc([N+](=O)[O-])cc2/C1=C1/Nc2ccccc2/C1=N/O [(3Z)-3-[(3Z)-3-hydroxyiminoindolin-2-ylidene]-5-nitro-indolin-2-one] here?
**A.** 0.5 to 2.5 µM

**Q.** For CCOC(=O)CN1C(=O)c2cccc3cccc(c23)C1=O [Ethyl (1,3-dioxo-1H-benzo[de]isoquinolin-2(3H)-yl)acetate], which IC50 (PIN1 [4]) is on record?
**A.** 5 µM

**Q.** What does the source list for Ac-Phe-Phe-pSer-Ψ[(Z)CHdC]-Pro-Arg-NH2?
**A.** IC50 (PIN1 [3]; read-out: PIN1 inhibition IC50): 1300 nM; Ki (PIN1 [3]; read-out: PIN1 inhibition Kis): 1740 nM

**Q.** For CN1C(=O)c2ccc3c4c(ccc(c24)C1=O)C(=O)N(C)C3=O [2,7-Dimethylbenzo[Imn][3,8]phenanthroline-1,3,6,8(2H,7H)-tetrone], which IC50 (PIN1 [4]) is on record?
**A.** 2 µM

**Q.** Which Ki (PIN1 [3]; read-out: PIN1 inhibition Ki) does the source give for “Ac-Lys(N-biotinoyl)-Ala-Ala-Bth-D-Thr(PO3H2)-Pip-Nal-Gln-NH2” here?
**A.** 1.2 nM

**Q.** Which IC50 (PIN1 [4]) does the source give for CCOC(=O)CN1C(=O)c2ccc3c4ccc5c6c(ccc(c7ccc(c2c37)C1=O)c64)C(=O)N(CC(=O)OCC)C5=O [Diethyl 2,2'-(1,3,8,10-tetraoxo-1,3,8,10-tetrahydroisoquinolino[4 ',5',6':6,5,10]anthra[2,1,9-def]isoquinoline-2,9-diyl)diacetate] here?
**A.** 1.5 µM

**Q.** With S=C(SC(=S)N1CCCCC1)N1CCCCC1 [1-Piperidinecarbodithioic acid, anhydrosulfide] as the compound, how does the IC50 (PIN1 [4]) read?
**A.** 4.1 µM
